# Results published in article PMC8175350, “Drug repurposing screens identify chemical entities for the development of COVID-19 interventions” (Nature Communications, 2021).
# Read-outs that look alike come from different tables or passages of the source.
# Legend:
# [1] = tested on: Calu-3 cells; experiment: cells; conditions: Homo sapiens; for Emax: Calu-3, 48 h, read-out: Calu-3 cell count Sinf Average; for EC50: Calu-3, read-out: Calu-3 cell count EC50 GeoMean
# [2] = Uninfected Calu-3 48 h Cell-Titer Glo cytotoxicity counter screen; conditions: human, uninfected Calu-3 cells, Calu-3 uninfected cytotoxicity CC50 GeoMean
# [3] = tested on: Calu-3 cells; experiment: as above; conditions: curve plateau at infinite concentration
# [4] = tested on: HeLa-ACE2 cells; experiment: cells; conditions: Homo sapiens; for EC50: HeLa-ACE2, read-out: HeLa-ACE2 cell count EC50 GeoMean; for Emax: HeLa-ACE2, 24 h, read-out: HeLa-ACE2 cell count Sinf Average
# [5] = tested on: HeLa-ACE2 cells; experiment: Uninfected HeLa-ACE2 24 h live/dead cytotoxicity counter screen; assay type: cell-based, human
# [6] = as above; assay type: cell-based, human; conditions: human, uninfected HeLa-ACE2 cells; read-out: HeLa-ACE2 uninfected cytotoxicity CC50 GeoMean
# [7] = tested on: SARS-CoV-2; assay type: cell-based; conditions: combination with remdesivir, synergy score δ
# [8] = tested on: SARS-CoV-2; experiment: microbe, parasite or virus in culture; assay type: cell-based; conditions: for Emax: Severe acute respiratory syndrome coronavirus 2, Calu-3, 48 h, read-out: Calu-3 CoV-2 Sinf Average; for EC50: read-out: Calu-3 CoV-2 EC50 GeoMean
# [9] = tested on: HepG2; experiment: HepG2 72 h CellTiter-Glo cytotoxicity; conditions: 72 h
# [10] = HepG2 72 h CellTiter-Glo cytotoxicity; conditions: human, HepG2 cells
# [11] = HEK293T 72 h CellTiter-Glo cytotoxicity; conditions: human, HEK293T cells
# [12] = tested on: HEK293T; experiment: HEK293T 72 h CellTiter-Glo cytotoxicity; conditions: 72 h
# [13] = tested on: SARS-CoV-2; experiment: microbe, parasite or virus in culture; assay type: cell-based; conditions: for Emax: Severe acute respiratory syndrome coronavirus 2, HeLa-ACE2, 24 h, read-out: HeLa-ACE2 CoV-2 Sinf Average; for EC50: read-out: HeLa-ACE2 CoV-2 EC50 GeoMean
# [14] = tested on: SARS-CoV-2; experiment: microbe, parasite or virus in culture; assay type: cell-based; conditions: for Emax: Severe acute respiratory syndrome coronavirus 2, HeLa-ACE2, 10 h, read-out: HeLa-ACE2 TOA CoV-2 Sinf Average; for EC50: read-out: HeLa-ACE2 TOA CoV-2 EC50 GeoMean
# [15] = tested on: HeLa-ACE2 cells; experiment: Total cell count in the HeLa-ACE2 TOA assay; assay type: cell-based; conditions: Homo sapiens; for EC50: HeLa-ACE2, read-out: HeLa-ACE2 TOA cell count EC50 GeoMean
# Description: Supplement 41467_2021_23328_MOESM3_ESM.xlsx, sheet "Table S1" | column: HeLa-ACE2 TOA cell count
# [16] = in vitro; conditions: human, Calu-3 uninfected cytotoxicity CC50 GeoMean
# [17] = tested on: HeLa-ACE2 cells; experiment: Total cell count in the HeLa-ACE2 TOA (time of addition) assay; assay type: cell-based, human; conditions: Homo sapiens, HeLa-ACE2; read-out: HeLa-ACE2 TOA cell count EC50 GeoMean
# [18] = tested on: HepG2; conditions: human
# [19] = tested on: Calu-3 cells; conditions: for Calu-3 uninfected cytotoxicity Sinf Average: human
# [20] = tested on: HEK293T; conditions: human
# [21] = curve plateau at infinite concentration
# [22] = Severe acute respiratory syndrome coronavirus 2, Calu-3, detail column
# [23] = Severe acute respiratory syndrome coronavirus 2, HeLa-ACE2, detail column
# [24] = Severe acute respiratory syndrome coronavirus 2, HeLa-ACE2
# [25] = Severe acute respiratory syndrome coronavirus 2, Calu-3
# [26] = human, uninfected HeLa-ACE2 cells, 24 h
# [27] = selectivity index, uninfected HeLa-ACE2 CC50 / SARS-CoV-2 EC50
compound,measurement,setting,value
NC1(c2ccc(-c3nc4ccn5c(=O)[nH]nc5c4cc3-c3ccccc3)cc2)CCC1 [MK-2206],Emax,[1],-100%
same,EC50,[1],> 9.98 µM
same,CC50 at 48 h,[2],8.7 µM
same,Calu-3 uninfected cytotoxicity Sinf Average,[3],-100%
same,EC50,[4],> 9.59 µM
same,HeLa-ACE2 uninfected cytotoxicity Sinf Average,[5]; [21],-100%
same,CC50 at 24 h,[6],> 22.8 µM
same,HeLa-ACE2 synergy score with remdesivi [δ],[7],2.087
same,SI in Calu-3,[8],< 2
same,Emax,[8]; [21],82%
same,EC50,[8]; [22],> 4.9 µM
same,HepG2 72-hour cytotoxicity Sinf Average,[9],-100%
same,CC50 at 72 h,[10],7.59 µM
same,CC50 at 72 h,[11],3.88 µM
same,HEK293T 72-hour cytotoxicty Sinf Average,[12],-102%
same,Emax,[13]; [21],99%
same,EC50,[13]; [23],1.1 µM
same,EC50 ratio between the standard 24 h and the TOA assay,[14],> 8
same,Emax,[14]; [21],100%
same,EC50,[14]; [24],> 9.39 µM
same,EC50,[15],> 9.59 µM
COc1cc(C[C@H]2c3cc(OC)c(OC)cc3CCN2C)c(Oc2cc3c(cc2OC)-c2c(OC)c(OC)cc4c2[C@H](C3)N(C)CC4)cc1OC [Thalicarpine],Emax,[1],-100%
same,EC50,[1],> 9.98 µM
same,EC50,[4],> 9.6 µM
same,HeLa-ACE2 uninfected cytotoxicity Sinf Average,[5],-99%
same,CC50 at 24 h,[6],> 26.6 µM
same,CC50,[16],> 15.3 µM
same,EC50,[8]; [25],> 9.98 µM
same,EC50,[17],> 9.61 µM
same,HeLa-ACE2 SI,[13],> 45.67
same,Emax,[13],96%
same,EC50,[13]; [24],0.582 µM
same,HepG2 72-hour cytotoxicity Sinf Average,[18],-105%
same,Calu-3 uninfected cytotoxicity Sinf Average,[19],-92%
same,TOA:HeLa-ACE2 EC50 Ratio,[14],16.501
same,Emax,[14],100%
same,EC50,[14]; [23],> 9.61 µM
same,HEK293T 72-hour cytotoxicty Sinf Average,[20],-105%
COc1ccc(C[C@H](N)C(=O)N[C@H]2[C@@H](O)[C@H](n3cnc4c(N(C)C)ncnc43)O[C@@H]2CO)cc1 [Puromycin - cytotoxicity control],Emax,[1],-100%
same,EC50,[1],> 10 µM
same,CC50 at 48 h,[2],3.95 µM
same,Calu-3 uninfected cytotoxicity Sinf Average,[3],-101%
same,Emax,[4],101%
same,EC50,[4],1.55 µM
same,HeLa-ACE2 uninfected cytotoxicity Sinf Average,[5]; [21],-100%
same,CC50 at 24 h,[6],0.658 µM
same,Emax,[8]; [21],97%
same,EC50,[8]; [22],2.74 µM
same,HepG2 72-hour cytotoxicity Sinf Average,[9],-101%
same,CC50 at 72 h,[10],1.08 µM
same,CC50 at 72 h,[11],0.829 µM
same,HEK293T 72-hour cytotoxicty Sinf Average,[12],-101%
same,Emax,[13]; [21],100%
same,EC50,[13]; [23],0.48 µM
same,Emax,[14]; [21],103%
same,EC50,[14]; [24],0.316 µM
same,EC50,[15],> 9.62 µM
CCCCN1CC[C@H](c2ccc(N(C)C)cc2)[C@@H](COc2ccc(C(F)(F)F)cc2)C1 [NNC 090026],EC50,[1],> 9.98 µM
same,Emax,[4],96%
same,EC50,[4],> 8.97 µM
same,HeLa-ACE2 uninfected cytotoxicity Sinf Average,[5]; [26],-100%
same,CC50 at 24 h,[6],> 15.4 µM
same,CC50 at 48 h,[16],> 23.5 µM
same,Emax,[8],100%
same,EC50,[8]; [22],> 8.31 µM
same,Calu-3 SI,"[8]; selectivity index, uninfected Calu-3 CC50 / SARS-CoV-2 EC50",> 2.83
same,EC50,[17],> 9.61 µM
same,Emax,[13],94%
same,EC50,[13]; [23],2.75 µM
same,HeLa-ACE2 SI,[13]; [27],> 5.59
same,HepG2 72-hour cytotoxicity Sinf Average,[18]; 72 h,-100%
same,uninfected Calu-3 CC50,[19],> 23.525 ×÷ 1.612 (n=4) μM
same,Calu-3 uninfected cytotoxicity Sinf Average,[19]; 48 h,-100%
same,TOA:HeLa-ACE2 EC50 Ratio,[14],1.737
same,Emax,[14],100%
same,EC50,[14]; [24],4.77 µM
same,HEK293T 72-hour cytotoxicty Sinf Average,[20]; 72 h,-100%
Cc1cccc(/C=N/Nc2cc(N3CCOCC3)n3nc(-c4ccncc4)cc3n2)c1 [APY0201],Emax,[1],100%
same,EC50,[1],> 9.98 µM
same,EC50,[4],> 9.59 µM
same,HeLa-ACE2 uninfected cytotoxicity Sinf Average,[5]; [26],-100%
same,CC50 at 24 h,[6],> 39.4 µM
same,CC50 at 48 h,[16],> 27 µM
same,Emax,[8],97%
same,EC50,[8]; [22],> 9.39 µM
same,EC50,[17],> 9.59 µM
same,Emax,[13],96%
same,EC50,[13]; [23],0.014 µM
same,HeLa-ACE2 SI,[13]; [27],> 2853.95
same,HepG2 72-hour cytotoxicity Sinf Average,[18]; 72 h,-100%
same,uninfected Calu-3 CC50,[19],> 26.965 ×÷ 1.196 (n=6) μM
same,Calu-3 uninfected cytotoxicity Sinf Average,[19]; 48 h,-100%
same,Emax,[14],100%
same,EC50,[14]; [23],> 9.59 µM
same,HEK293T 72-hour cytotoxicty Sinf Average,[20]; 72 h,-96%
"COc1cc2c(Nc3ccc(Cl)c(Cl)c3F)ncnc2cc1OC[C@@H]1C[C@@H]2CN(C)C[C@@H]2C1 [Tesevatinib, XL647, Kadmon Corporation]",Emax,[1],-100%
same,EC50,[1],> 9.97 µM
same,CC50 at 48 h,[2],3.52 µM
same,Calu-3 uninfected cytotoxicity Sinf Average,[3],-105%
same,Emax,[4],100%
same,EC50,[4],> 8.16 µM
same,HeLa-ACE2 uninfected cytotoxicity Sinf Average,[5]; [21],-100%
same,CC50 at 24 h,[6],> 20.6 µM
same,Emax,[8]; [21],100%
same,EC50,[8]; [22],3.32 µM
same,HepG2 72-hour cytotoxicity Sinf Average,[9],-103%
same,CC50 at 72 h,[10],3.15 µM
same,CC50 at 72 h,[11],2.67 µM
same,HEK293T 72-hour cytotoxicty Sinf Average,[12],-102%
same,Emax,[13]; [21],101%
same,EC50,[13]; [23],2.44 µM
same,Emax,[14]; [21],100%
same,EC50,[14]; [24],> 7.61 µM
same,Emax,"[15]; HeLa-ACE2, 10 h, curve plateau at infinite concentration, read-out: HeLa-ACE2 TOA cell count Sinf Average",-100%
same,EC50,[15],> 9.59 µM
COc1cc(-n2cnc3cc(-c4ccc(Cl)cc4)sc3c2=O)ccc1OCCN1CCCC1 [GW-803430],Emax,[1],100%
same,EC50,[1],> 9.98 µM
same,Emax,[4],100%
same,EC50,[4],> 7.88 µM
same,HeLa-ACE2 uninfected cytotoxicity Sinf Average,[5],-100%
same,CC50 at 24 h,[6],18.9 µM
same,CC50,[16],5.81 µM
same,Calu-3 SI,[8],0.88
same,Emax,[8],100%
same,EC50,[8]; [25],6.57 µM
same,HepG2 72-hour cytotoxicity Sinf Average,[9],-100%
same,HEK293T 72-hour cytotoxicty Sinf Average,[12],-101%
same,EC50,[17],> 9.59 µM
same,HeLa-ACE2 SI,[13],11.16
same,Emax,[13],100%
same,EC50,[13]; [24],1.7 µM
same,Calu-3 uninfected cytotoxicity Sinf Average,[19],-116%
same,TOA:HeLa-ACE2 EC50 Ratio,[14],5.656
same,Emax,[14],100%
same,EC50,[14]; [23],> 9.59 µM
